Data: PubChem BioAssay (NCI)
Where “and” joins values, the source holds several entries; their conditions need not be identical. Equal entries are not always repeated.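 Grown in 96-well plates, cells were treated for 48 hours with each compound at five concentrations. Insufficient inhibition: endpoint recorded as highest concentration tested. Abbreviation: GI50, concentration required for 50% inhibition of growth. TGI: concentration producing complete growth inhibition.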

What was measured:
Test in all cases: inhibition of tumour cell growth, NCI panel, 48 h
[1] = system: M14 melanoma
[2] = system: UACC-257 melanoma
[3] = system: NCI-H522 lung
[4] = system: SN12C renal
[5] = system: SF-268 CNS
[6] = system: K-562 leukemia
[7] = system: PC-3 prostate
[8] = system: MDA-MB-231 breast
[9] = system: NCI/ADR-RES ovarian
[10] = system: HS 578T breast

| SMILES | TGI [1] | TGI [2] | TGI [3] | TGI [4] | TGI [5] | TGI [6] | TGI [7] | TGI [8] | TGI [9] | GI50 [1] | GI50 [2] | GI50 [7] | GI50 [4] | GI50 [10] | TGI [10] | GI50 [8] | GI50 [5] | GI50 [6] | GI50 [9] | GI50 [3] |
| --- | --- | --- | --- | --- | --- | --- | --- | --- | --- | --- | --- | --- | --- | --- | --- | --- | --- | --- | --- | --- |
| N#C/C(=C/c1ccc([N+](=O)[O-])o1)c1ccccc1 | > 100 µM | > 100 µM | > 100 µM | > 100 µM | > 100 µM | > 100 µM |  |  |  |  |  |  |  |  |  |  |  |  |  |  |
| CO[C@H]1C[C@H](O[C@H]2CC[C@@]3(C)[C@H](CC[C@@H]4[C@@H]3CC[C@]3(C)[C@@H](C5=CC(=O)OC5)CC[C@]43O)C2)O[C@H](C)[C@H]1O | 0.0607 µM | 0.215 µM | 0.0197 µM | 0.0111 µM | 0.0188 µM |  | 0.0212 µM | 0.412 µM | 0.0472 µM |  |  |  |  |  |  |  |  |  |  |  |
| ClC/C=C/CSc1ncnc2nc[nH]c12 | > 100 µM | > 100 µM |  | > 100 µM | > 100 µM | > 100 µM | > 100 µM | > 100 µM | > 100 µM | > 100 µM | > 100 µM | > 100 µM | > 100 µM | > 100 µM | > 100 µM | > 100 µM | > 100 µM | > 100 µM | > 100 µM |  |
| COc1ccc(/C=C\c2cc(OC)c(OC)c(OC)c2)cc1NC(=O)/C=C/c1cc(OC)c(OC)c(OC)c1 | > 100 µM | > 100 µM | > 100 µM | > 100 µM | > 100 µM |  | > 100 µM | > 100 µM | > 100 µM | 3.15 µM | 30.8 µM | 3.09 µM | 4.56 µM | 5.94 µM | > 100 µM | 7.81 µM | > 100 µM |  | 2.1 µM | 2.51 µM |
| C=C1C(C)C2C(Cc3ccccc3)NC(=O)C23C(OC(C)=O)C=CC(C)(O)C(=O)C(C)C/C=C/C3C1O (configuration not stated) |  | 45.4 µM and 335 µM | 27.3 µM and 36.4 µM | 499 µM |  | > 500 µM |  | > 220 µM | > 500 µM | 3.18 µM | 26.3 µM |  | 14.9 µM | 0.0185 µM and 0.0551 µM | 2.07 µM and 1.18 µM | 0.193 µM | 0.698 µM | 13.6 µM | > 500 µM |  |
| Cc1nc2ccccc2c(=O)n1/N=C(\N=Nc1cc(Cl)ccc1Cl)c1ccc(N(C)C)cc1 |  |  | 92.3 µM | > 100 µM | > 100 µM | > 100 µM |  |  |  |  |  |  |  |  |  |  |  |  |  |  |
| COc1cc2c(c3oc4c(O)cccc4c(=O)c13)CC(C(C)(O)CCl)O2 (configuration not stated) | 1.27 µM | 6.79 µM | 5.94 µM | 2.4 µM | 3.33 µM |  | 7.76 µM | 5.6 µM | 11.9 µM |  |  |  |  |  | 6.89 µM |  |  |  |  |  |
| C#Cc1c(C)c(/C=C/C(C)=C\C(=O)OC)n(C)c1C | > 100 µM | > 100 µM | > 100 µM | > 100 µM | > 100 µM | > 100 µM |  |  |  |  |  |  |  |  |  |  |  |  |  |  |
| Nc1ncc(CN2CCCC2)c(-c2ccccc2O)n1 | > 750 µM | > 750 µM | > 750 µM | > 750 µM | > 750 µM |  |  |  |  |  |  |  |  |  |  |  |  | > 750 µM |  |  |
| CC(C)(c1ccc(C=O)o1)c1ccc(C(C)(C)c2ccc(C=O)o2)o1 |  | > 100 µM | > 100 µM |  | > 100 µM | > 100 µM |  |  |  |  |  |  |  |  |  |  |  |  |  |  |
| O=C1CCNC/C1=C\c1ccccc1 | 27.9 µM | 58.8 µM | 23.4 µM | > 100 µM | 45 µM | > 100 µM |  |  |  |  |  |  |  |  |  |  |  |  |  |  |
| CCNC(=O)O/N=C1\CCC2[C@@H]3CC=C4C[C@@H](OC(=O)NCC)CC[C@]4(C)C3CC[C@]12C (some centres not stated) | 3.23 µM | 3.33 µM | 10.6 µM | 11.9 µM | 13 µM | 4 µM |  |  |  |  |  |  |  |  |  |  |  |  |  |  |
| N#Cc1c(N)oc2cc3c(C#N)c(N)oc3cc12 | > 100 µM | > 100 µM | > 100 µM | > 100 µM | > 100 µM | > 100 µM |  |  |  |  |  |  |  |  |  |  |  |  |  |  |
| CC1(C)C2CC(=O)C1(C)C(OCc1ccccc1)C2Br (configuration not stated) | 57.9 µM and > 100 µM |  |  | 52.9 µM and > 100 µM | > 100 µM | > 100 µM | 47.8 µM and > 100 µM | 42.9 µM and > 100 µM | 42.1 µM and > 100 µM | 23.4 µM and 54.8 µM |  |  | 24.2 µM and 82.1 µM | 13.4 µM | 68.2 µM and 58.8 µM | 18.5 µM and > 100 µM |  |  |  |  |
| CCOC(=O)C(Oc1ccc(OC)c2c1C(=O)CCC2)c1ccccc1 (configuration not stated) | > 100 µM | > 100 µM | > 100 µM | > 100 µM | > 100 µM | > 100 µM |  |  |  |  |  |  |  |  |  |  |  |  |  |  |
| CCn1c(=O)nc2n(-c3ccc(SC)cc3)c3ccccc3nc-2c1=O | > 100 µM | > 100 µM | > 100 µM | > 100 µM | > 100 µM | > 100 µM |  |  |  |  |  |  |  |  |  |  |  |  |  |  |
| CCOC(=O)C1=C(C)N(NC(=O)Nc2ccccc2)C2(N)N(NC(=O)Nc3ccccc3)C(C)=C(C(=O)OCC)C12C#N (configuration not stated) | 34.6 µM | 38.5 µM | 33.1 µM | 33 µM | 42.8 µM | 48.2 µM |  |  |  |  |  |  |  |  |  |  |  |  |  |  |
| CCOC(=O)C(=O)CC(=O)C(Br)C(Br)c1ccc(Cl)cc1 (configuration not stated) | 50.7 µM | 90.1 µM | 45.7 µM | > 100 µM | > 100 µM | 40.8 µM |  |  |  |  |  |  |  |  |  |  |  |  |  |  |
| CN(C)NC(=O)NC12CC3CC(CC(C3)C1)C2 |  | > 100 µM | > 100 µM | > 100 µM | > 100 µM | > 100 µM |  |  |  |  |  |  |  |  |  |  |  |  |  |  |
| CCCCCCCCCC(=O)Oc1ccc(/C(=C(/C)c2ccccc2)c2ccc(OCCN3CCCC3)cc2)cc1 |  | 16.8 µM | 18.4 µM | 17.9 µM | 17.2 µM |  | 15.7 µM | 20.2 µM | 16.9 µM |  | 9.23 µM | 8.28 µM | 9.15 µM | 9.55 µM | 32.2 µM | 10.2 µM | 8.16 µM |  | 8.03 µM | 9.36 µM |
| COc1cc(O)c(C(=O)C2Cc3ccccc32)c(OC)c1 (configuration not stated) | > 100 µM | > 100 µM | > 100 µM | > 100 µM | > 100 µM | > 100 µM |  |  |  |  |  |  |  |  |  |  |  |  |  |  |
| N/N=C1/C(=O)N(c2ccc(Cl)cc2)C(=O)C(=O)C1c1nc2ccccc2s1 (configuration not stated) | > 100 µM | > 100 µM | > 100 µM | > 100 µM | > 100 µM | > 100 µM |  |  |  |  |  |  |  |  |  |  |  |  |  |  |
| NN=C1/C(=C\c2ccccc2)CCC/C1=C/c1ccccc1 | > 100 µM | > 100 µM | 36.1 µM | > 100 µM | > 100 µM | 44 µM |  |  |  |  |  |  |  |  |  |  |  |  |  |  |
